Assay results published in patent US20240100125A1 (ENYO PHARMA, priority 2021, published 2024).
One block for each molecule: values may come before it.

What was measured:
[1] = tested on: HBV; settings: chronic hepatitis B patients; cited from earlier work
[2] = Pruritus under EYP001 once a day versus twice a day in combined treatment with IFN-α; type: in vivo, human; settings: EYP001 once a day rather than twice a day
Description: Therefore, in a particular aspect, the FXR agonist is administered once a day.

[3] = tested on: HBV; experiment: 4-week treatment course in HBV chronically infected patients: HBV replication markers (pgRNA, HBcrAg, HBsAg); type: in vivo, human
[4] = tested on: FXR; experiment: FXR engagement markers (C4, FGF19) in HBV chronically infected patients; type: in vivo, human; settings: all EYP001 doses; data not shown
[5] = tested on: HBV infected primary human hepatocytes (PHH); experiment: HBV replication in infected primary human hepatocytes (PHH), FXR agonist +/- IFN-alpha; type: cell-based; settings: treated day 4 to 10 post-infection, harvested day 10, GW4064 1 or 10 uM, IFN-alpha 100 IU/mL
Description: FIG. 3. […] Freshly prepared and seeded PHH were infected with HBV at a multiplicity of infection of 250 GE/cell. From day 4 to 10 post-infection, cells were treated with […], +/−IFN-alpha at 100 IU/mL, or vehicle (NT), or IFN-alpha at 100 IU/mL alone. Cells and supernatants were harvested at day 10 for intracellular HBV RNA, viremia, and secreted antigens (HBsAg and HBeAg) quantification. Results are the mean+/−SD of one experiment performed with three biological replicates.
FIG. 4. […] Freshly prepared and seeded PHH were infected with HBV at a multiplicity of infection of 250 GE/cell. From day 4 to 10 post-infection, cells were treated with Vonafexor at 10 uM, or Nidufexor at 10 uM, or Tropifexor at 1 uM, or OCA at 10 uM, or GW4064 at 10 uM, +/−IFN-alpha (IFN) at 100 IU/mL, or vehicle, or IFN-alpha at 100 IU/mL alone. Supernatants were harvested at day 10 for secreted HBs antigen (HBsAg) quantification. Results are the mean+/−SEM of five experiments performed with three replicates.
Supernatants containing HBV particles were clarified (0.45 μm filter) and concentrated with 8% PEG 8000 (Sigma-Aldrich).
HBV DNA was quantified using the AmpliPrep/COBAS® TaqMan® HBV Test (Roche).
HBs and HBe antigens secreted in cells supernatant were quantified, after required dilutions, with Autobio kits (AutoBio, China) according to manufacturer's protocol.
Total RNA was prepared using NucleoSpin RNA Plus (Macherey-Nagel). After DNA digestion with TURBO DNase (Ambion), maximum 1000 ng RNA were reverse-transcribed using High-Capacity RNA-to-cDNA kit (Thermo Fisher Scientific). […] All assays were performed in triplicate.
HBs antigen secreted in cells supernatant were quantified, after required dilutions, with Autobio kits (AutoBio, China) according to manufacturer's protocol.
PHH are naturally susceptible to infection with HBV virions produced in vitro, leading to very high levels of replication of the virus.

[6] = change from baseline at day 29, EYP001a 1 × 100 mg/day oral monotherapy
[7] = change from baseline at day 29, EYP001a 1 × 200 mg/day oral monotherapy
[8] = change from baseline at day 29, EYP001a 1 × 400 mg/day oral monotherapy
[9] = change from baseline at day 29, EYP001a 2 × 200 mg/day oral monotherapy
[10] = change from baseline at end of 4-week treatment (day 29), ETV open-label 0.5 mg/day

pruritus [2]: fewer pruritus
SMILES: O=C(O)c1cc2c(Cl)c(N3CCN(S(=O)(=O)c4c(Cl)cccc4Cl)CC3)ccc2o1 [EYP001a]
HBV viral load [1]: reduces HBV viral load
HBVpgRNA Mean [3, 6]: 0.5 Log10 Copies mL
HBcrAg Mean [3, 6]: −0.3 Log10 IU mL
HBVpgRNA Mean [3, 7]: 0.4 Log10 Copies mL
HBcrAg Mean [3, 7]: 0.2 Log10 IU mL
HBVpgRNA Mean [3, 8]: 0.2 Log10 Copies mL
HBcrAg Mean [3, 8]: 0.02 Log10 IU mL
HBVpgRNA Mean [3, 9]: −0.1 Log10 Copies mL
HBcrAg Mean [3, 9]: 1.2 Log10 IU mL
mean HBsAg decrease ([3]; end of treatment on day 29, 400 mg QD EYP001, p<0.05): −0.1 log 10 IU/mL
C4 [4]: decreases
FGF19 [4]: increases

SMILES: CC(C)c1onc(-c2c(Cl)cccc2Cl)c1COc1ccc(/C=C/c2cccc(C(=O)O)c2)c(Cl)c1 [GW4064, 3-[2-[2-Chloro-4-[[3-(2,6-dichlorophenyl)-5-(1-methylethyl)-4-isoxazolyl]methoxy]phenyl]ethenyl]benzoic acid]
HBeAg secretion [5]: reduce in a dose response manner
HBsAg secretion [5]: unable to significantly impact
intracellular HBV RNA level [5]: reduce in a dose response manner
viremia [5]: unable to significantly impact

SMILES: C=C1[C@H](CO)[C@@H](O)C[C@@H]1n1cnc2c(=O)[nH]c(N)nc21 [ETV, entecavir, reference compound]
HBVpgRNA Mean [3, 10]: −0.3 Log10 Copies mL
HBcrAg Mean [3, 10]: 0.03 Log10 IU mL
